# From US6455242B1, “Color photographic element containing speed improving compound” (Eastman Kodak Company, priority 1998, dated 2002)
# Experiment: Permanent solvent physical constant beta
# Assay type: physicochemical
# Details: permanent solvent constant as defined by Kamlet et al.
# Description: The materials of the invention can be added to a mixture containing silver halide before coating or, more suitably, be mixed with the silver halide just prior to or during coating. In either case, additional components like couplers, […], surfactants, hardeners and other materials that are typically present in such solutions may also be present at the same time. The materials of the invention are not water-soluble and cannot be added directly to the solution. They may be added directly if dissolved in an organic water miscible solution such as methanol, acetone or the like or more preferably as a dispersion. A dispersion incorporates the material in a stable, finely divided state in a hydrophobic organic solvent (often referred to as a coupler solvent or permanent solvent) that is stabilized by suitable surfactants and surface active agents usually in combination with a binder or matrix such as gelatin. The dispersion may contain one or more permanent solvents that dissolve the material and maintain it in a liquid state. Some examples of suitable permanent solvents are tricresylphosphate, N,N-diethyllauramide, N,N-dibutyllauramide, p-dodecylphenol, dibutylphthalate, di-n-butyl sebacate, N-n-butylacetanilide, 9-octadecen-1-ol, ortho-methylphenyl benzoate, trioctylamine and 2-ethylhexylphosphate. Permanent solvents can also be described in terms of physical constants such as alpha, beta and pi* as defined by M. J. Kamlet, J-L. M. Abboud, M. H. Abraham and R. W. Taft, J. Org Chem, 48, 2877(1983). The preferred permanent solvents used with the materials of the invention are those with ClogP of 5.0 or greater and beta values of 0.4 or greater or more preferably, beta values of 0.5 or greater. Preferred classes of solvents are carbonamides, phosphates, alcohols and esters. When a solvent is present, it is preferred that the weight ratio of compound to solvent be at least 1 to 0.5, or most preferably, at least 1 to 1. […]
row,Compound,beta
1,"CCCCCCCCCCCC(=O)N(CCCC)CCCC [N,N-dibutyllauramide]",0.93
2,Cc1ccccc1OC(=O)c1ccccc1 [ortho-methylphenyl benzoate],0.43
3,CCCCCCCC/C=C\CCCCCCCCO [(Z)-9-octadecen-1-ol],0.71
